According to patent US8840931B2, “Pharmaceutical compositions for dehydrating, atrophying and eliminating pathological tissues” (priority 2008, dated 2014):

Assays:
[1] = tested on: related diseases; test: Clinical experiment observations (overall statement); conditions: human, in vivo
[2] = tested on: bleeding wounds; test: Treatment of bleeding wounds for hemostasis; assay type: in vivo; conditions: used for hemostasis
From the text: The inventors determined that the mechanism of this phenomenon was the dehydration, atrophy, and elimination of blood and blood tissues, rather than the well-known mechanism of an astringent of Monsell in the literature in which hemostasis was caused by forming a thrombus of blood platelet and fibrin, aggregation of erythrocyte, and accelerated coagulation of blood.

ferric subsulfate
clinical use to treat related diseases [1]: successfully used
observation on bleeding wounds [2]: formation of black solid particulate matter was observed
